*1 amine or outer side, *2 acyl side, *3 side chain or, on linkers, in order; H or OH if unused. Where a SMILES comes first, the peptide text is derived from it. Bridges are numbered along the chain shown (N, C = ends). [ ]: non-standard residue; d: D form. TATA = O=C(CC[*:1])N1CN(C(=O)CC[*:2])CN(C(=O)CC[*:3])C1; 1Nal = N[C@@H](Cc1cccc2ccccc12)C(=O)O
These compounds were tested against TREM2 extracellular domain (ECD) (residues 19-131, C-terminally biotinylated, deglycosylated or glycosylated) (Homo sapiens, UniProt Q9NZC2) (assay: biochemical). Conditions: Human BLI (Kd; nM) (deglycosylated), Table 4A; deglycosylated human TREM2 ECD; steady-state KD, 25° C.
Chain of TREM2 extracellular domain (ECD) (residues 19-131, C-terminally biotinylated, deglycosylated or glycosylated) (Q9NZC2 19-131): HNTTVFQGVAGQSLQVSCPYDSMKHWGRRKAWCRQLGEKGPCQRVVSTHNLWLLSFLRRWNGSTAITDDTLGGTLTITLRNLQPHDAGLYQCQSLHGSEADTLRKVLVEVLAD
Protocol: Bio-layer interferometry was performed on an Octet RED384® system (Sartorius) at 25° C. in a buffer containing 50 mM HEPES (pH 7.5), 150 mM NaCl and 0.1% Tween. TREM2 extracellular domain (ECD) (residues 19-131, C-terminally biotinylated, deglycosylated or glycosylated) was loaded onto Superstreptavidin biosensors (SSA, 18-5070, Sartorius) at 0.0125 mg/ml for 300 s. Bicycle peptides (10 mM in DMSO) were dispensed into 384-Well Tilted-Bottom Plates (18-5076, Sartorius) using an Echo liquid handler giving a final DMSO concentration of 0.125% in all wells including control wells. Association of defined concentrations of bicyclic peptide (0-12.5 μM, 1:2 dilutions for 7 points) was recorded over 120 s followed by dissociation in buffer over 120 s. Reference wells containing no bicycle peptides and reference sensors loaded with an unrelated protein (His-tagged MLLT3a) were subjected to the same assay protocol and double reference subtraction was used for processing to account for non-specific binding. Traces were analysed using Octet Software (Version 11.0). Association and dissociation curves were globally fit and the response at equilibrium (Req) plotted against concentration to obtain steady-state KD values.
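Further: Bio-layer interferometry in 50 mM HEPES pH 7.5 with 150 mM NaCl and 0.1% Tween, double-referenced with blank wells and unrelated-protein sensors, equilibrium response fitted versus concentration.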

Row | Structure (SMILES) | Kd
1 | C[C@H](N)C(=O)N[C@H]1CSCCC(=O)N2CN3CN(C2)C(=O)CCSC[C@H](NC(=O)[C@H](Cc2ccc(O)cc2)NC(=O)[C@H](CCC(=O)O)NC(=O)[C@H](CO)NC1=O)C(=O)N[C@@H](Cc1ccccc1)C(=O)N[C@@H](Cc1c[nH]c2ccccc12)C(=O)N1CCC[C@H]1C(=O)N[C@@H](Cc1ccccc1)C(=O)N[C@@H](Cc1ccc(O)cc1)C(=O)N[C@@H](CO)C(=O)N[C@H](C(=O)N[C@@H](C)C(N)=O)CSCCC3=O [BCY17669, A-(SEQ ID NO: 2)-A] (H-ACSEYCFWPFYSCA-NH2; linker 2-6-13 via TATA) | 1200 nM
2 | CC(=O)N[C@H]1CSCCC(=O)N2CN3CN(C2)C(=O)CCSC[C@H](NC(=O)[C@H](Cc2ccc(O)cc2)NC(=O)[C@H](CCC(=O)O)NC(=O)[C@H](CO)NC1=O)C(=O)N[C@@H](Cc1ccccc1)C(=O)N[C@@H](Cc1c[nH]c2ccccc12)C(=O)N1CCC[C@H]1C(=O)N[C@@H](Cc1ccccc1)C(=O)N[C@@H](Cc1ccc(O)cc1)C(=O)N[C@@H](Cc1c[nH]cn1)C(=O)N[C@H](C(N)=O)CSCCC3=O [BCY18217, Ac-(SEQ ID NO: 1)] | 900 nM
3 | CC(=O)N[C@@H](C)C(=O)N[C@H]1CSCCC(=O)N2CN3CN(C2)C(=O)CCSC[C@H](NC(=O)[C@H](Cc2ccc(O)cc2)NC(=O)[C@H](CCC(=O)O)NC(=O)[C@H](CO)NC1=O)C(=O)N[C@@H](Cc1ccccc1)C(=O)N[C@@H](Cc1c[nH]c2ccccc12)C(=O)N1CCC[C@H]1C(=O)N[C@@H](Cc1ccccc1)C(=O)N[C@@H](Cc1ccc(O)cc1)C(=O)N[C@@H](Cc1c[nH]cn1)C(=O)N[C@H](C(=O)N[C@@H](C)C(N)=O)CSCCC3=O [BCY18218, Ac-A-(SEQ ID NO: 1)-A] (Ac-ACSEYCFWPFYHCA-NH2; linker 2-6-13 via TATA) | 2000 nM
4 | NC(=O)[C@@H]1CSCCC(=O)N2CN3CN(C2)C(=O)CCSC[C@H](N)C(=O)N[C@@H](CO)C(=O)N[C@@H](CCC(=O)O)C(=O)N[C@@H](Cc2ccc(O)cc2)C(=O)N[C@@H](CSCCC3=O)C(=O)N[C@@H](Cc2ccccc2)C(=O)N[C@@H](Cc2c[nH]c3ccccc23)C(=O)N2CCC[C@H]2C(=O)N[C@@H](Cc2ccccc2)C(=O)N[C@@H](Cc2ccc(O)cc2)C(=O)N[C@@H](Cc2c[nH]cn2)C(=O)N1 [BCY18219, SEQ ID NO: 1] | 700 nM
5 | C[C@H](N)C(=O)N[C@H]1CSCCC(=O)N2CN3CN(C2)C(=O)CCSC[C@H](NC(=O)[C@H](Cc2ccc(O)cc2)NC(=O)[C@H](CCC(=O)O)NC(=O)[C@H](C)NC1=O)C(=O)N[C@@H](Cc1ccccc1)C(=O)N[C@@H](Cc1c[nH]c2ccccc12)C(=O)N1CCC[C@H]1C(=O)N[C@@H](Cc1ccccc1)C(=O)N[C@@H](Cc1ccc(O)cc1)C(=O)N[C@@H](Cc1c[nH]cn1)C(=O)N[C@H](C(=O)N[C@@H](C)C(N)=O)CSCCC3=O [BCY18220, A-(SEQ ID NO: 24)-A] (H-ACAEYCFWPFYHCA-NH2; linker 2-6-13 via TATA) | 2000 nM
6 | C[C@H](N)C(=O)N[C@H]1CSCCC(=O)N2CN3CN(C2)C(=O)CCSC[C@H](NC(=O)[C@H](Cc2ccc(O)cc2)NC(=O)[C@H](C)NC(=O)[C@H](CO)NC1=O)C(=O)N[C@@H](Cc1ccccc1)C(=O)N[C@@H](Cc1c[nH]c2ccccc12)C(=O)N1CCC[C@H]1C(=O)N[C@@H](Cc1ccccc1)C(=O)N[C@@H](Cc1ccc(O)cc1)C(=O)N[C@@H](Cc1c[nH]cn1)C(=O)N[C@H](C(=O)N[C@@H](C)C(N)=O)CSCCC3=O [BCY18221, A-(SEQ ID NO: 25)-A] (H-ACSAYCFWPFYHCA-NH2; linker 2-6-13 via TATA) | 1800 nM
7 | CC(=O)N[C@H]1CSCCC(=O)N2CN3CN(C2)C(=O)CCSC[C@H](NC(=O)[C@H](Cc2ccc(O)cc2)NC(=O)[C@H](CCC(=O)O)NC(=O)[C@H](CO)NC1=O)C(=O)N[C@@H](Cc1ccccc1)C(=O)N[C@@H](Cc1cccc2ccccc12)C(=O)N1CCC[C@H]1C(=O)N[C@@H](Cc1ccccc1)C(=O)N[C@@H](Cc1ccc(O)cc1)C(=O)N[C@@H](Cc1c[nH]cn1)C(=O)N[C@H](C(N)=O)CSCCC3=O [BCY19669, Ac-(SEQ ID NO: 37)] (Ac-CSEYCF[1Nal]PFYHC-NH2; linker 1-5-12 via TATA) | 2000 nM
8 | CC(=O)N[C@H]1CSCCC(=O)N2CN3CN(C2)C(=O)CCSC[C@H](NC(=O)[C@H](Cc2ccc(O)cc2)NC(=O)[C@H](CCC(=O)O)NC(=O)[C@H](CO)NC1=O)C(=O)N[C@@H](Cc1ccccc1)C(=O)N[C@@H](Cc1c[nH]c2cc(Cl)ccc12)C(=O)N1CCC[C@H]1C(=O)N[C@@H](Cc1ccccc1)C(=O)N[C@@H](Cc1ccc(O)cc1)C(=O)N[C@@H](Cc1c[nH]cn1)C(=O)N[C@H](C(N)=O)CSCCC3=O [BCY19671, Ac-(SEQ ID NO: 42)] | 1000 nM
9 | C[C@H](N)C(=O)N[C@H]1CSCCC(=O)N2CN3CN(C2)C(=O)CCSC[C@H](NC(=O)[C@H](Cc2ccc(O)cc2)NC(=O)[C@H](Cc2ccc(O)cc2)NC(=O)[C@H](CO)NC1=O)C(=O)N[C@@H](Cc1ccccc1)C(=O)N[C@@H](Cc1c[nH]c2ccccc12)C(=O)N1CCC[C@H]1C(=O)N[C@@H](Cc1ccccc1)C(=O)N[C@@H](CCC(N)=O)C(=O)N[C@@H](CO)C(=O)N[C@H](C(=O)N[C@@H](C)C(N)=O)CSCCC3=O [BCY19766, A-(SEQ ID NO: 8)-A] (H-ACSYYCFWPFQSCA-NH2; linker 2-6-13 via TATA; C-terminus assumed) | 1000 nM
10 | C[C@H](N)C(=O)N[C@H]1CSCCC(=O)N2CN3CN(C2)C(=O)CCSC[C@H](NC(=O)[C@H](Cc2ccc(O)cc2)NC(=O)[C@H](CO)NC(=O)[C@H]([C@@H](C)O)NC1=O)C(=O)N[C@@H](Cc1ccccc1)C(=O)N[C@@H](Cc1c[nH]c2ccccc12)C(=O)N1CCC[C@H]1C(=O)N[C@@H](Cc1ccccc1)C(=O)N[C@@H](Cc1ccc(O)cc1)C(=O)N[C@@H](CCC(N)=O)C(=O)N[C@H](C(=O)N[C@@H](C)C(N)=O)CSCCC3=O [BCY19768, A-(SEQ ID NO: 10)-A] (H-ACTSYCFWPFYQCA-NH2; linker 2-6-13 via TATA; N-terminus and C-terminus assumed) | 900 nM
11 | C[C@H](N)C(=O)N[C@H]1CSCCC(=O)N2CN3CN(C2)C(=O)CCSC[C@H](NC(=O)[C@H](Cc2ccc(O)cc2)NC(=O)[C@H](CC(N)=O)NC(=O)[C@H]([C@@H](C)O)NC1=O)C(=O)N[C@@H](Cc1ccccc1)C(=O)N[C@@H](Cc1c[nH]c2ccccc12)C(=O)N1CCC[C@H]1C(=O)N[C@@H](Cc1ccccc1)C(=O)N[C@@H](Cc1c[nH]c2ccccc12)C(=O)N[C@@H](CO)C(=O)N[C@H](C(=O)N[C@@H](C)C(N)=O)CSCCC3=O [BCY19769, A-(SEQ ID NO: 11)-A] (H-ACTNYCFWPFWSCA-NH2; linker 2-6-13 via TATA) | 920 nM
12 | C[C@H](N)C(=O)N[C@H]1CSCCC(=O)N2CN3CN(C2)C(=O)CCSC[C@H](NC(=O)[C@H](Cc2ccc(O)cc2)NC(=O)[C@H](CC(N)=O)NC(=O)[C@H](CO)NC1=O)C(=O)N[C@@H](Cc1ccccc1)C(=O)N[C@@H](Cc1c[nH]c2ccccc12)C(=O)N1CCC[C@H]1C(=O)N[C@@H](Cc1ccccc1)C(=O)N[C@@H](Cc1c[nH]c2ccccc12)C(=O)N[C@@H](CCC(N)=O)C(=O)N[C@H](C(=O)N[C@@H](C)C(N)=O)CSCCC3=O [BCY19770, A-(SEQ ID NO: 12)-A] (H-ACSNYCFWPFWQCA-NH2; linker 2-6-13 via TATA; N-terminus and C-terminus assumed) | 1800 nM
13 | CC(C)C[C@@H]1NC(=O)[C@H](Cc2ccccc2)NC(=O)[C@H](Cc2ccccc2)NC(=O)[C@@H]2CCCN2C(=O)[C@H](Cc2c[nH]c3ccccc23)NC(=O)[C@H](Cc2ccccc2)NC(=O)[C@@H]2CSCCC(=O)N3CN(CN(C3)C(=O)CCSC[C@@H](C(=O)N[C@@H](C)C(N)=O)NC1=O)C(=O)CCSC[C@H](NC(=O)[C@H](C)N)C(=O)N[C@@H](CO)C(=O)N[C@@H](CCC(=O)O)C(=O)N[C@@H](Cc1ccc(O)cc1)C(=O)N2 [BCY19776, A-(SEQ ID NO: 15)-A] (H-ACSEYCFWPFFLCA-NH2; linker 2-6-13 via TATA) | 750 nM
14 | C[C@H](N)C(=O)N[C@H]1CSCCC(=O)N2CN3CN(C2)C(=O)CCSC[C@H](NC(=O)[C@H](Cc2ccc(O)cc2)NC(=O)[C@H](CC(N)=O)NC(=O)[C@H]([C@@H](C)O)NC1=O)C(=O)N[C@@H](Cc1ccccc1)C(=O)N[C@@H](Cc1c[nH]c2ccccc12)C(=O)N1CCC[C@H]1C(=O)N[C@@H](Cc1ccccc1)C(=O)N[C@@H](CCC(N)=O)C(=O)N[C@@H](CO)C(=O)N[C@H](C(=O)N[C@@H](C)C(N)=O)CSCCC3=O [BCY19780, A-(SEQ ID NO: 19)-A] (H-ACTNYCFWPFQSCA-NH2; linker 2-6-13 via TATA) | 2400 nM
15 | C[C@H](N)C(=O)N[C@H]1CSCCC(=O)N2CN3CN(C2)C(=O)CCSC[C@H](NC(=O)[C@H](Cc2ccc(O)cc2)NC(=O)[C@H](CC(N)=O)NC(=O)[C@H]([C@@H](C)O)NC1=O)C(=O)N[C@@H](Cc1ccccc1)C(=O)N[C@@H](Cc1c[nH]c2ccccc12)C(=O)N1CCC[C@H]1C(=O)N[C@@H](Cc1ccccc1)C(=O)N[C@@H](Cc1ccc(O)cc1)C(=O)N[C@@H](CO)C(=O)N[C@H](C(=O)N[C@@H](C)C(N)=O)CSCCC3=O [BCY19781, A-(SEQ ID NO: 20)-A] (H-ACTNYCFWPFYSCA-NH2; linker 2-6-13 via TATA) | 1400 nM
16 | CC(C)[C@@H]1NC(=O)[C@H](C)NC(=O)[C@H](Cc2ccccc2)NC(=O)[C@@H]2CCCN2C(=O)[C@H](Cc2c[nH]c3ccccc23)NC(=O)[C@H](Cc2ccccc2)NC(=O)[C@@H]2CSCCC(=O)N3CN(CN(C3)C(=O)CCSC[C@@H](C(=O)N[C@@H](C)C(N)=O)NC1=O)C(=O)CCSC[C@H](NC(=O)[C@H](C)N)C(=O)N[C@@H]([C@@H](C)O)C(=O)N[C@@H](CC(N)=O)C(=O)N[C@@H](Cc1ccc(O)cc1)C(=O)N2 [BCY19783, A-(SEQ ID NO: 22)-A] (H-ACTNYCFWPFAVCA-NH2; linker 2-6-13 via TATA) | 2700 nM

Same assay, conditions: Human BLI (Kd; nM) (deglycosylated), Table 4B; deglycosylated human TREM2 ECD; steady-state KD, 25° C.

Row | Structure (SMILES) | Kd
17 | CC(=O)N[C@H]1CSCCC(=O)N2CN3CN(C2)C(=O)CCSC[C@H](NC(=O)[C@H](Cc2ccc(O)cc2)NC(=O)[C@H](CCC(=O)O)NC(=O)[C@H](CO)NC1=O)C(=O)N[C@@H](Cc1ccccc1F)C(=O)N[C@@H](Cc1c[nH]c2ccccc12)C(=O)N1CCC[C@H]1C(=O)N[C@@H](Cc1ccccc1)C(=O)N[C@@H](Cc1ccc(O)cc1)C(=O)N[C@@H](Cc1c[nH]cn1)C(=O)N[C@H](C(N)=O)CSCCC3=O [BCY20051, Ac-(SEQ ID NO: 51)] | 2030 nM
